Measurements reported in ChEMBL document CHEMBL1201862, “PubChem BioAssay data set” (2004).
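Cultured in 96-well plates, cells were exposed to test compound for 48 hours across five concentrations. GI50: concentration for 50% inhibition of growth.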 Activity calls are given as the source filed them. No stated cut-off is given here; in the data, active = GI50 up to about 1.1 µM and inactive = higher.

Tests used:
Experiment in all cases: NCI anticancer screen, dose series, 48 h
SK-MEL-28 = test system: SK-MEL-28
SF-295 = test system: SF-295
SF-539 = test system: SF-539
EKVX = test system: EKVX
OVCAR-5 = test system: OVCAR-5
LOX IMVI = test system: LOX IMVI
HL-60 = test system: HL-60
SK-MEL-2 = test system: SK-MEL-2
K562 = test system: K562
UACC-257 = test system: UACC-257
A498 = test system: A498
SNB-75 = test system: SNB-75
SR = test system: SR
OVCAR-4 = test system: OVCAR-4
UO-31 = test system: UO-31
ACHN = test system: ACHN
786-0 = test system: 786-0
SNB-19 = test system: SNB-19
NCI-H226 = test system: NCI-H226
Malme-3M = test system: Malme-3M

Compound	GI50 (SK-MEL-28)	GI50 (SF-295)	GI50 (SF-539)	GI50 (EKVX)	GI50 (OVCAR-5)	GI50 (LOX IMVI)	GI50 (HL-60)	GI50 (SK-MEL-2)	GI50 (K562)	GI50 (UACC-257)	GI50 (A498)	GI50 (SNB-75)	GI50 (SR)	GI50 (OVCAR-4)	GI50 (UO-31)	GI50 (ACHN)	GI50 (786-0)	GI50 (SNB-19)	GI50 (NCI-H226)	GI50 (Malme-3M)
CN1Cc2ccccc2S(=O)(=O)n2cccc2C1=O	> 100 µM (inactive)	> 100 µM (inactive)	> 100 µM (inactive)	> 100 µM (inactive)	> 100 µM (inactive)	> 100 µM (inactive)	> 100 µM (inactive)	> 100 µM (inactive)	> 100 µM (inactive)	> 100 µM (inactive)	> 100 µM (inactive)	> 100 µM (inactive)	8.41 µM (inactive)	> 100 µM (inactive)	> 100 µM (inactive)	> 100 µM (inactive)	> 100 µM (inactive)	–	–	–
CCOc1ccc(C(c2c(O)c3ccccc3oc2=O)c2c(O)c3ccccc3oc2=O)cc1	80 µM (inactive)	> 100 µM (inactive)	48 µM (inactive)	80.4 µM (inactive)	> 100 µM (inactive)	66.5 µM (inactive)	19.9 µM (inactive)	24.1 µM (inactive)	53.8 µM (inactive)	35.6 µM (inactive)	36.1 µM (inactive)	–	26 µM (inactive)	> 100 µM (inactive)	20.5 µM (inactive)	74.6 µM (inactive)	78.2 µM (inactive)	91 µM (inactive)	95.9 µM (inactive)	48.8 µM (inactive)
O=S(=O)(c1ccccc1)n1c2ccc(Br)cc2c2nc3ccccc3nc21	> 100 µM (inactive)	> 100 µM (inactive)	–	–	> 100 µM (inactive)	> 100 µM (inactive)	–	> 100 µM (inactive)	> 100 µM (inactive)	> 100 µM (inactive)	> 100 µM (inactive)	> 100 µM (inactive)	> 100 µM (inactive)	> 100 µM (inactive)	> 100 µM (inactive)	> 100 µM (inactive)	> 100 µM (inactive)	> 100 µM (inactive)	47.9 µM (inactive)	> 100 µM (inactive)
CC(C)(C)c1ccc(O)c(CN(Cc2c(O)ccc3ccccc23)C2CCCCC2)c1	20.5 µM (inactive)	18.3 µM (inactive)	16.4 µM (inactive)	15.8 µM (inactive)	16.9 µM (inactive)	10.4 µM (inactive)	–	16.7 µM (inactive)	16.9 µM (inactive)	15.7 µM (inactive)	19.5 µM (inactive)	16 µM (inactive)	16 µM (inactive)	20.7 µM (inactive)	14.7 µM (inactive)	18.5 µM (inactive)	15.5 µM (inactive)	18.5 µM (inactive)	–	17.4 µM (inactive)
C/C=C/[C@H]1O[C@@](OC)([C@@H](C)[C@H](O)[C@H](C)[C@H]2OC(=O)/C(OC)=C/C(C)=C/[C@@H](C)[C@@H](O)[C@@H](C)[C@@H](O)[C@H](C)C/C(C)=C/C=C/[C@@H]2OC)CC(OC2CC(O)C(OC(N)=O)C(C)O2)[C@@H]1C (some centres undefined)	–	< 0.01 µM (active)	< 0.01 µM (active)	< 0.01 µM (active)	1.82 µM (inactive)	< 0.01 µM (active)	< 0.01 µM (active)	< 0.01 µM (active)	< 0.01 µM (active)	< 0.01 µM (active)	8.99 µM (inactive)	–	< 0.01 µM (active)	–	< 0.01 µM (active)	< 0.01 µM (active)	< 0.01 µM (active)	2.9 µM (inactive)	< 0.01 µM (active)	< 0.01 µM (active)
CC(C)=CCC/C(C)=C/C=C/C(C)=C/C=C/C(C)=C/C=C/C=C(C)/C=C/C=C(C)/C=C/[C@H]1C(C(C)(C)O)CC[C@]1(C)O (some centres undefined)	20.5 µM (inactive)	32.7 µM (inactive)	29.2 µM (inactive)	40.6 µM (inactive)	40 µM (inactive)	23.3 µM (inactive)	19.3 µM (inactive)	37 µM (inactive)	21.4 µM (inactive)	21.8 µM (inactive)	27.1 µM (inactive)	–	23 µM (inactive)	32.1 µM (inactive)	20.2 µM (inactive)	22 µM (inactive)	21.4 µM (inactive)	–	71.1 µM (inactive)	–
Oc1ccc(I)c2cccnc12	40.1 µM (inactive)	3.48 µM (inactive)	12.5 µM (inactive)	9.27 µM (inactive)	52.5 µM (inactive)	8.26 µM (inactive)	2.12 µM (inactive)	11.9 µM (inactive)	2.93 µM (inactive)	16.3 µM (inactive)	32 µM (inactive)	–	3.35 µM (inactive)	26.4 µM (inactive)	6.98 µM (inactive)	7.13 µM (inactive)	4.88 µM (inactive)	17.8 µM (inactive)	15.6 µM (inactive)	7.55 µM (inactive)
